From publication PMC7413254 (Nature Communications, 2020)

What was measured:
Assay type in all cases: cell-based
PfCRT^Ecu1110 [1] = target: T1, PfCRT^Ecu1110 (Plasmodium falciparum, UniProt Q9N623, A220S/I356L/K76T/N326D); assay: [3H]CQ uptake into Xenopus oocytes, cis-inhibition by unlabelled solute; details: for PfCRT-mediated [3H]CQ transport, cis-inhibition (% PfCRTEcu1110 control): PfCRTEcu1110 oocytes, background [3H]CQ accumulation subtracted, normalised to oocyte type control; for [3H]CQ transport (% PfCRTEcu1110 control), cis-inhibition, PfCRTEcu1110: PfCRT-mediated component (background subtracted), sheet title says normalised to PfCRTDd2 control, mean ± SEM, SEM
T1 sequence (Q9N623 whole entry A220S/I356L/K76T/N326D): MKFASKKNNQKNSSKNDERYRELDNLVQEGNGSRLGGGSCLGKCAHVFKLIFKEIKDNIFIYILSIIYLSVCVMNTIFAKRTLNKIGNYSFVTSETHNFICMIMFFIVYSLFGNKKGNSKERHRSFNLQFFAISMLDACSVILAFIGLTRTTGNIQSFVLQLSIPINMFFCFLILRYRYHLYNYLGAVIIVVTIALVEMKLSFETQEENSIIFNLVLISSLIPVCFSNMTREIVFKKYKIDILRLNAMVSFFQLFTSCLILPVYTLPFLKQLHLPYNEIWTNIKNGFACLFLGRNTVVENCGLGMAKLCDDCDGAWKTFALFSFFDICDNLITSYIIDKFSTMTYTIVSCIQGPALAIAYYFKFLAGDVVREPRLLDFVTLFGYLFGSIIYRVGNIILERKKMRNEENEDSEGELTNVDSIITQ
Method in brief: (§1)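 Transport runs from the acidic bath into the cytosol, analogous to PfCRT-mediated efflux out of the vacuole. Non-expressing oocytes act as background.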

PfCRT^Dd2 [2] = target: T2, PfCRT^Dd2 (Plasmodium falciparum, UniProt Q9N623, A220S/I356T/K76T/M74I/N326S/N75E/Q271E/R371I); assay: as above; details: PfCRTDd2 oocytes, background [3H]CQ accumulation subtracted, normalised to oocyte type control
T2 sequence (Q9N623 whole entry A220S/I356T/K76T/M74I/N326S/N75E/Q271E/R371I): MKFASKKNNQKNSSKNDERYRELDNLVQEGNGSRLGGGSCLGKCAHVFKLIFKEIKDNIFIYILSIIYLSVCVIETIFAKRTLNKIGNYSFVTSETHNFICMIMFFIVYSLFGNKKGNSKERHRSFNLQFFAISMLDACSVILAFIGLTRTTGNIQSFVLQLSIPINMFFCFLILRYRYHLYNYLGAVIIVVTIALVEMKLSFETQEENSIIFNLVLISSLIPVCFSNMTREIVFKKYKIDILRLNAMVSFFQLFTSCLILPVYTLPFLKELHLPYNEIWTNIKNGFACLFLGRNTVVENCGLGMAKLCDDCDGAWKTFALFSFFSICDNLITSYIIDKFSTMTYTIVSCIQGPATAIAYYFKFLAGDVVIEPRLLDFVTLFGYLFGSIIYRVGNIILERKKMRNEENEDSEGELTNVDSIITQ
Method in brief: as §1

PfCRT^Ecu1110 [3] = target: T1, PfCRT^Ecu1110; assay: cell-based; details: for PfCRT-mediated [3H]CQ transport, trans-stimulation (% PfCRTEcu1110 control): PfCRTEcu1110 oocytes, normalised to oocyte type control; for [3H]CQ transport (% PfCRTDd2 control), trans-stimulation, PfCRTEcu1110: PfCRT-mediated component (background subtracted), sheet title says normalised to PfCRTDd2 control, mean ± SEM, SEM
Method in brief: (§2)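 Oocytes (ten per treatment, ≥4 independent frogs/days) were preloaded by injecting VF-6 in 25 nL ND96 at pH 5.0, 5.5, 6.0 or 7.0, or Na^+-free choline buffer, then uptake run 1.5 h, 27.5 °C, ND96 pH 5.5 by default. Internal concentrations assumed ~400 nL oocyte volume.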

PfCRT^3D7 = PfCRT^3D7 (Plasmodium falciparum, UniProt Q8IBZ9); assay: cell-based; details: PfCRT3D7 oocytes, normalised to oocyte type control
PfCRT^3D7, sequence (Q8IBZ9 59-398): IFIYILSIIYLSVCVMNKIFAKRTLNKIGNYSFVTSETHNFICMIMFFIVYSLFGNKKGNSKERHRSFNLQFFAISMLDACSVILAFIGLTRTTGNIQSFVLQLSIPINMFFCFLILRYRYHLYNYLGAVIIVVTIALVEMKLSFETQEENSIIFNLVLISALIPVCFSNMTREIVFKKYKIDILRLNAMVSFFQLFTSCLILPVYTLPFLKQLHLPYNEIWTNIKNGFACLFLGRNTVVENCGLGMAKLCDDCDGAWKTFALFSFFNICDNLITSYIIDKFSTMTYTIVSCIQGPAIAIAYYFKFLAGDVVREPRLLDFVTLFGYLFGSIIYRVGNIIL
Method in brief: as §2

PfCRT^Dd2 [4] = target: T2, PfCRT^Dd2; assay: cell-based; details: for PfCRT-mediated [3H]CQ transport, trans-stimulation (% PfCRTDd2 control): PfCRTDd2 oocytes, normalised to oocyte type control; for [3H]CQ transport (% PfCRTDd2 control), trans-stimulation, PfCRTDd2: PfCRT-mediated component (background subtracted), mean ± SEM, SEM
Method in brief: as §2

[5] = [test solute]i = 5 mM (intracellular)
[6] = [test solute]i = 45 mM (intracellular; 30 mM for some solutes due to solubility)
[7] = [test solute]i = 5 mM (injected)
[8] = [test solute]i = 45 mM (30 mM for some solutes due to solubility)

Substance | PfCRT-mediated [3H]CQ transport, cis-inhibition (% PfCRTEcu1110 control) (PfCRT^Ecu1110 [1]; [test solute] = 0.5 mM) | PfCRT-mediated [3H]CQ transport, cis-inhibition (% PfCRTEcu1110 control) (PfCRT^Ecu1110 [1]; [test solute] = 1 mM) | [3H]CQ transport (% PfCRTEcu1110 control), cis-inhibition, PfCRTEcu1110 (PfCRT^Ecu1110 [1]; [test solute] = 0.5 mM) [% PfCRTEcu1110 control] | [3H]CQ transport (% PfCRTEcu1110 control), cis-inhibition, PfCRTEcu1110 (PfCRT^Ecu1110 [1]; [test solute] = 1 mM) [% PfCRTEcu1110 control] | [3H]CQ transport (% PfCRTEcu1110 control), cis-inhibition, PfCRTEcu1110 (PfCRT^Ecu1110 [1]; [test solute] = 2 mM) [% PfCRTEcu1110 control] | PfCRT-mediated [3H]CQ transport, cis-inhibition (% PfCRTDd2 control) (PfCRT^Dd2 [2]; [test solute] = 0.5 mM) | PfCRT-mediated [3H]CQ transport, cis-inhibition (% PfCRTDd2 control) (PfCRT^Dd2 [2]; [test solute] = 1 mM) | PfCRT-mediated [3H]CQ transport, cis-inhibition (% PfCRTDd2 control) (PfCRT^Dd2 [2]; [test solute] = 2 mM) | PfCRT-mediated [3H]CQ transport, trans-stimulation (% PfCRTEcu1110 control) (PfCRT^Ecu1110 [3]; [5]) | PfCRT-mediated [3H]CQ transport, trans-stimulation (% PfCRTEcu1110 control) (PfCRT^Ecu1110 [3]; [6]) | [3H]CQ transport (% PfCRTDd2 control), trans-stimulation, PfCRTEcu1110 (PfCRT^Ecu1110 [3]; [7]) [% PfCRTEcu1110 control] | [3H]CQ transport (% PfCRTDd2 control), trans-stimulation, PfCRTEcu1110 (PfCRT^Ecu1110 [3]; [8]) [% PfCRTEcu1110 control] | PfCRT-mediated [3H]CQ transport, trans-stimulation (% PfCRT3D7 control) (PfCRT^3D7; [5]) | PfCRT-mediated [3H]CQ transport, trans-stimulation (% PfCRT3D7 control) (PfCRT^3D7; [6]) | PfCRT-mediated [3H]CQ transport, trans-stimulation (% PfCRTDd2 control) (PfCRT^Dd2 [4]; [5]) | PfCRT-mediated [3H]CQ transport, trans-stimulation (% PfCRTDd2 control) (PfCRT^Dd2 [4]; [6]) | [3H]CQ transport (% PfCRTDd2 control), trans-stimulation, PfCRTDd2 (PfCRT^Dd2 [4]; [7]) [% PfCRTDd2 control] | [3H]CQ transport (% PfCRTDd2 control), trans-stimulation, PfCRTDd2 (PfCRT^Dd2 [4]; [8]) [% PfCRTDd2 control] | PfCRT-mediated [3H]CQ transport, cis-inhibition (% PfCRTEcu1110 control) (PfCRT^Ecu1110 [1]; [test solute] = 2 mM)
DLPVG [DG-5] | 46 ± 1.8 | 33 ± 2.7 | 14 ± 0.5 | 10 ± 0.6 | 5.0 ± 0.05 | 29 ± 0.6 | 22 ± 1.3 | 11 ± 0.1 | 115 ± 1.5 | 118 ± 1.1 | 35 ± 1.5 | 36 ± 1.3 | 128 ± 2.2 | 146 ± 3.2 | 98 ± 1.0 | 113 ± 1.1 | 98 ± 1.0 | 113 ± 1.1 | 
PNALS [PS-5, host-derived peptide upstream of PL-4] | 50 ± 2.5 | 42 ± 1.8 |  | 13 ± 0.1 | 9.0 ± 0.01 |  | 30 ± 2.7 | 19 ± 0.3 | 127 ± 2.6 | 136 ± 4.6 | 38 ± 1.5 | 41 ± 2.2 | 131 ± 6.2 | 180 ± 3.6 | 99 ± 4.6 | 96 ± 4.1 | 99 ± 4.6 | 96 ± 4.1 | 29 ± 1.1
